Experiments:
Test in all cases: relative viability (nuclei count vs DMSO), 5 days (fraction); higher = more cells survive
NCI-H522 = tested on: NCI-H522
How it was run: (§1)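 For relative viability, nuclei counts in treated wells were divided by those in vehicle wells. Lung cancer cell lines had been pin-tool dosed in 1536-well plates the day after seeding and cultured for 5 days, then fixed and stained in one step (final 0.05% Triton X-100, 1% formaldehyde, 1 ug/ml Hoechst) and imaged at 4×. Doses were one drug alone or a fixed anchor-drug dose plus five library-drug doses (not always all listed) in √10 steps, and values are duplicate-plate medians.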

NCI-H3122 = tested on: NCI-H3122
How it was run: as §1

NCI-H596 = tested on: NCI-H596
How it was run: as §1

NCI-H727 = tested on: NCI-H727
How it was run: as §1

HOP-62 = tested on: HOP-62
How it was run: as §1

NCI-H2170 = tested on: NCI-H2170
How it was run: as §1

ABC-1 = tested on: ABC-1
How it was run: as §1

SK-MES-1 = tested on: SK-MES-1
How it was run: as §1

NCI-H1944 = tested on: NCI-H1944
How it was run: as §1

EMC-BAC-2 = tested on: EMC-BAC-2
How it was run: as §1

SW 900 = tested on: SW 900
How it was run: as §1

LK-2 = tested on: LK-2
How it was run: as §1

A-427 = tested on: A-427
How it was run: as §1

NCI-H322M = tested on: NCI-H322M
How it was run: as §1

NCI-H2009 = tested on: NCI-H2009
How it was run: as §1

LXF-289 = tested on: LXF-289
How it was run: as §1

HARA = tested on: HARA
How it was run: as §1

NCI-H2228 = tested on: NCI-H2228
How it was run: as §1

SW 1573 = tested on: SW 1573
How it was run: as §1

PC-3 [JPC-3] = tested on: PC-3 [JPC-3]
How it was run: as §1

NCI-H1792 = tested on: NCI-H1792
How it was run: as §1

NCI-H1993 = tested on: NCI-H1993
How it was run: as §1

Compound `COc1nc(C)cnc1NS(=O)(=O)c1cccnc1-c1ccc(-c2nnco2)cc1` [Zibotentan] + N=C(N)NC(=N)NCCc1ccccc1 [Phenformin] (partner 250 µM) has a relative viability (NCI-H522; first compound 0.08 µM) of 0.614, a relative viability (NCI-H522; first compound 0.253 µM) of 0.648 and a relative viability (NCI-H522; first compound 0.8 µM) of 0.672. It also gave a relative viability (NCI-H522; first compound 2.53 µM) of 0.723, a relative viability (NCI-H3122; first compound 0.08 µM) of 0.378 and a relative viability (NCI-H3122; first compound 0.8 µM) of 0.408. The relative viability (NCI-H3122; first compound 2.53 µM) was 0.373, the relative viability (NCI-H596; first compound 0.08 µM) was 0.842 and the relative viability (NCI-H596; first compound 0.253 µM) was 0.786. For the same compound, the relative viability (NCI-H596; first compound 0.8 µM) was 0.794, the relative viability (NCI-H596; first compound 2.53 µM) was 0.805 and the relative viability (NCI-H727; first compound 0.08 µM) was 0.41. The relative viability (NCI-H727; first compound 0.253 µM) was 0.519, the relative viability (NCI-H727; first compound 0.8 µM) was 0.553 and the relative viability (NCI-H727; first compound 2.53 µM) was 0.627. It also gave a relative viability (HOP-62; first compound 0.08 µM) of 0.746, a relative viability (HOP-62; first compound 0.253 µM) of 0.664 and a relative viability (HOP-62; first compound 0.8 µM) of 0.747. The relative viability (HOP-62; first compound 2.53 µM) was 0.715, the relative viability (NCI-H2170; first compound 0.08 µM) was 0.451 and the relative viability (NCI-H2170; first compound 0.253 µM) was 0.389. The relative viability (NCI-H2170; first compound 0.8 µM) was 0.436, the relative viability (NCI-H2170; first compound 2.53 µM) was 0.39 and the relative viability (ABC-1; first compound 0.08 µM) was 0.236. The relative viability (ABC-1; first compound 0.253 µM) was 0.235, the relative viability (ABC-1; first compound 0.8 µM) was 0.252 and the relative viability (ABC-1; first compound 2.53 µM) was 0.227. It also gave a relative viability (SK-MES-1; first compound 0.08 µM) of 0.714, a relative viability (SK-MES-1; first compound 0.253 µM) of 0.612 and a relative viability (SK-MES-1; first compound 0.8 µM) of 0.678. The relative viability (SK-MES-1; first compound 2.53 µM) was 0.692, the relative viability (NCI-H1944; first compound 0.08 µM) was 0.226 and the relative viability (NCI-H1944; first compound 0.253 µM) was 0.181. The relative viability (NCI-H1944; first compound 0.8 µM) was 0.188, the relative viability (NCI-H1944; first compound 2.53 µM) was 0.202 and the relative viability (EMC-BAC-2; first compound 0.08 µM) was 0.541. The relative viability (EMC-BAC-2; first compound 0.8 µM) was 0.61, the relative viability (EMC-BAC-2; first compound 2.53 µM) was 0.538 and the relative viability (SW 900; first compound 0.08 µM) was 0.557. The relative viability (SW 900; first compound 0.253 µM) was 0.502, the relative viability (SW 900; first compound 0.8 µM) was 0.669 and the relative viability (SW 900; first compound 2.53 µM) was 0.801. For the same compound, the relative viability (LK-2; first compound 0.08 µM) was 0.354, the relative viability (LK-2; first compound 0.253 µM) was 0.403 and the relative viability (LK-2; first compound 0.8 µM) was 0.467. The relative viability (LK-2; first compound 2.53 µM) was 0.59, the relative viability (A-427; first compound 0.08 µM) was 0.38 and the relative viability (A-427; first compound 0.253 µM) was 0.39. The relative viability (A-427; first compound 0.8 µM) was 0.397, the relative viability (A-427; first compound 2.53 µM) was 0.348 and the relative viability (NCI-H322M; first compound 0.08 µM) was 0.824. It also gave a relative viability (NCI-H322M; first compound 0.253 µM) of 0.589, a relative viability (NCI-H322M; first compound 0.8 µM) of 0.831 and a relative viability (NCI-H322M; first compound 2.53 µM) of 0.816. The relative viability (NCI-H2009; first compound 0.08 µM) was 0.494, the relative viability (NCI-H2009; first compound 0.253 µM) was 0.469 and the relative viability (NCI-H2009; first compound 0.8 µM) was 0.542. For the same compound, the relative viability (NCI-H2009; first compound 2.53 µM) was 0.481, the relative viability (LXF-289; first compound 0.08 µM) was 0.533 and the relative viability (LXF-289; first compound 0.253 µM) was 0.489. For the same compound, the relative viability (LXF-289; first compound 0.8 µM) was 0.571, the relative viability (LXF-289; first compound 2.53 µM) was 0.543 and the relative viability (HARA; first compound 0.08 µM) was 0.462. The relative viability (HARA; first compound 0.253 µM) was 0.429, the relative viability (HARA; first compound 0.8 µM) was 0.217 and the relative viability (HARA; first compound 2.53 µM) was 0.489. For the same compound, the relative viability (NCI-H2228; first compound 0.08 µM) was 0.324, the relative viability (NCI-H2228; first compound 0.253 µM) was 0.314 and the relative viability (NCI-H2228; first compound 0.8 µM) was 0.444. It also gave a relative viability (NCI-H2228; first compound 2.53 µM) of 0.415, a relative viability (SW 1573; first compound 0.08 µM) of 0.397 and a relative viability (SW 1573; first compound 0.8 µM) of 0.359. The relative viability (SW 1573; first compound 2.53 µM) was 0.334, the relative viability (PC-3 [JPC-3]; first compound 0.08 µM) was 0.459 and the relative viability (PC-3 [JPC-3]; first compound 0.253 µM) was 0.466. The relative viability (PC-3 [JPC-3]; first compound 0.8 µM) was 0.474, the relative viability (PC-3 [JPC-3]; first compound 2.53 µM) was 0.499 and the relative viability (NCI-H1792; first compound 0.08 µM) was 0.424. For the same compound, the relative viability (NCI-H1792; first compound 0.253 µM) was 0.244, the relative viability (NCI-H1792; first compound 0.8 µM) was 0.355 and the relative viability (NCI-H1792; first compound 2.53 µM) was 0.259. For the same compound, the relative viability (NCI-H1993; first compound 0.08 µM) was 0.461, the relative viability (NCI-H1993; first compound 0.253 µM) was 0.541 and the relative viability (NCI-H1993; first compound 0.8 µM) was 0.46. It also gave a relative viability (NCI-H1993; first compound 2.53 µM) of 0.514.
